Reference: patent publication US10286000B2, “Retinoid X receptor-gamma agonists and retinoid X receptor-alpha antagonists for treatment of cancer” (St. Jude Children's Research Hospital, Inc., priority 2013, dated 2019)

Experiments:
MMP-1 = MMP-1 activity in culture supernatant; assay type: cell-based, human; conditions: culture supernatant from HT29 and CAL27 cells
[1] = test system: ATM/ATR checkpoint pathway in HCT116 cells; assay: Western blot of ATM/ATR checkpoint pathway; assay type: cell-based, human
Experimental: Total cell lysates were collected at various time points for Western blot analysis to detect (A) ATM (Ser1981) and ATR (Ser428) phosphorylation and (B) ULBP2 expression. Data shown are representative of three independent experiments. […] Total cell lysates were prepared at various time points (with the same total protein concentration as determined by BCA protein assay) (0 h to 24 h) for phospho-Chk1 by ELISA. Data were expressed as fold change relative to the degree of Chk1 phosphorylation at 0 h (n=3). […] Data are representative of three independent experiments. […] Data are representative of three independent experiments. […] Data shown are representative of three independent experiments. (G) The knockdown efficiencies of various siRNAs in HCT116 cells were evaluated by Western blot analysis. Results are representative of three independent experiments. […] Data shown are representative of three independent experiments. * P<0.05, ** P<0.01, *** P<0.001.

[2] = test system: colon cancer cell lines (NKL or primary NK cells as effectors); assay: NK cell cytotoxicity assay (BATDA release); assay type: cell-based, human
Experimental: (A) NKL cells express high level of NKG2D but not NKp30 on their cell surface as determined by flow cytometry. Results are representative of two independent experiments. Therefore, the use of anti-NKp30 in NKL killing assay described in 2 F below was considered as a non-specific IgG blockade relative to anti-NKG2D. […] (D) HCT116 cells transduced with control or a ULBP2-overexpressing lentiviral construct were analyzed by flow cytometry for the surface expression of ULBP2. Results are representative of two independent experiments. (E) NK cell cytotoxicity on the ULBP2-transduced HCT116 cells was determined by a BATDA release assay using NKL cells as effector cells (n=3). (F) DMSO- or SPIR-treated (3 days) HCT116 cells were subjected to a BATDA release assay using NKL cells in the presence or absence of anti-NKp30 or anti-NKG2D antibodies (10 μg/mL) (n=3). (G) DMSO- or SPIR-treated (3 days) HCT116 cells were subjected to a BATDA release assay using IL-2 (10 U/ml)-primed primary NK cells isolated from healthy donors at various E:T ratios in the presence or absence of anti-NKp30 or anti-NKG2D antibodies (10 μg/mL) (n=3). * P<0.05, ** P<0.005, *** P<0.0001.
The results were calculated as follows: […]

[3] = test system: HCT116, HT29, and CAL27 cells; assay: in vitro cell invasion assay (ECM-coated Transwell); assay type: cell-based, human; conditions: HCT116, HT29, CAL27
Experimental: (§1) The number of cells that invaded the ECM was determined after 24 h. Data are expressed as percentage change in tumor invasion relative to that of DMSO-treated cells (n=3). (D) Wound healing by DMSO- and SPIR-treated HCT116, HT29, and CAL27 cells was compared. Data are calculated as the percentage change in distance of migration relative to that of DMSO-treated cells (n=3). […] Tumor xenografts and lung metastases were detected by bioluminescence imaging on day 25. Data are shown as the average total flux (photons/second)±standard deviation (n=8). (F) The lung metastases (arrows) were confirmed by examining lung tissue sections. * P≤0.05, ** P<0.01, *** P<0.005, **** P<0.0001.
The invasiveness of the tumor cells was determined by using the CytoSelect 96-well Cell Invasion Assay with Basement Membrane (Cell Biolabs) according to the manufacturer instructions.

[4] = test system: ULBP2 in MR-knockdown 293T cells; assay: ULBP2 surface expression in MR-knockdown 293T cells; assay type: cell-based, human
Experimental: (A) MR mRNA expression was determined by qRT-PCR in various cell lines (n=3). (B) MR protein expression was determined by Western blot analysis. Data shown are representative of two independent experiments. (C) MR-knockdown 293T cells were generated by lentiviral transduction with an shRNA vector (pLKO.1) targeting MR. The relative mRNA expression of MR was analyzed by qRT-PCR (n=3). […] Data shown are representative of two independent experiments. * P<0.0001.

[5] = test system: MMP-1, 7, 10, 12, and 13 in CAL27 cells; assay: RT-qPCR of MMP mRNA; assay type: cell-based, human; conditions: 3 days
Description: Data were normalized to GAPDH mRNA levels and presented as fold change relative to the mRNA expression in DMSO treated cells (n=3). * P<0.005, ** P<0.001.

HCT116 cells = assay: cell-cycle analysis (propidium iodide, EdU); assay type: cell-based, human; conditions: HCT116, 24 h
TIMP2 and TIMP3 = TIMP2 and TIMP3 ELISA; assay type: cell-based, human; conditions: HCT116, 56 μM 3 days
normal human lymphocytes = assay: normal human lymphocytes: viability and NKG2DL expression; assay type: cell-based
[6] = test system: DNA damage in HCT116 cells; assay: comet assay; assay type: cell-based, human
Experimental: Experiments were performed according to the manufacturer's instructions.

[7] = test system: HT29 xenografts, lung metastasis; assay: lung metastasis model using HT29 cells; assay type: in vivo, NSG mice; conditions: i.p. twice a week for 3 weeks
Experimental: as §1
Luciferase-expressing HCT116 and HT29 cells were generated by lentiviral transduction of the cells with a CMV promoter-driven luciferase expression construct engineered from the pLL3.7 vector. […] Bioluminescence imaging was performed in a Xenogen imaging system to monitor tumor growth and the data were analyzed using Living Image software (Caliper LifeSciences). For the lung metastasis model using HT29 cells, lungs were harvested for bioluminescence imaging and then fixed in 10% neutral buffered formalin, paraffin embedded, sectioned, and stained with hematoxylin and eosin. A total of six lung sections at 100-μm intervals were collected for the observation of pulmonary nodules. […]

In the case of `CC(=O)S[C@@H]1CC2=CC(=O)CC[C@]2(C)[C@H]2CC[C@@]3(C)[C@@H](CC[C@@]34CCC(=O)O4)[C@H]12` [SPIR, spironolactone], the MMP-1 activity (MMP-1) is reported as “decrease of MMP-1 activity”, the “ATM and ATR phosphorylation” value ([1]; HCT116, 56 μM, time-dependent) is reported as “induces ATM and ATR phosphorylation” and the “phosphorylated Chk2 and H2A.X” value ([1]; HCT116, 24 h) is reported as “an increase was also detected”. The “susceptibility to primary NK cell-mediated lysis” value ([2]; HT29 and SW480 cells, IL-2-primed primary NK cells) was “markedly enhanced”, the “susceptibility to NKL lysis” value ([2]; all colon cancer cell lines, SPIR 56 μM) was “significantly increased” and the “invasion through ECM-coated membranes” value [3] was “significantly suppressed invasion”. For the same compound, the “upregulation of ULBP2 upon SPIR treatment with shRNA knockdown of MR” value [4] was “did not affect the upregulation of ULBP2”, the “expression of Matrix Metalloproteinases (MMP-1, MMP-7, MMP-10, MMP-12, MMP-13)” value [5] was “downregulates expression” and the cell cycle (HCT116 cells) was “S-phase cell-cycle arrest”. The “TIMP2 and TIMP3 in culture supernatant” value (TIMP2 and TIMP3) was “corresponding increases”, the “viability or NKG2DL expression of normal human lymphocytes” value (normal human lymphocytes) was “no detrimental effect” and the DNA breakage ([6]; HCT116, 56 μM for 24 h) was “moderate decrease in DNA breakage”. The genotoxicity ([6]; conclusion from comet assays) was “not genotoxic” and the lung metastasis [7] was “significant reduction of lung metastasis”.
